pIC50: −log10 of the molar value.
Tests used:
c-Met kinase = c-Met kinase (Homo sapiens, UniProt P08581); assay: c-Met kinase activity assay (HTRF); type: biochemical; details: c-Met kinase from Carna Biosciences, read-out: IC50 (c-Met/BIO)
Method: The inhibitory ability of the compounds of the present invention on c-Met kinase activity was determined by Homogeneous Time-Resolved Fluorescence (HTRF), and was expressed by the median inhibitory concentration IC50 value of the compounds. The method was as follows: a series of compounds with gradient concentration were incubated with a specific concentration of the enzyme solution for 5 minutes at room temperature, after which an appropriate amount of enzyme reaction substrate and ATP were added to start the enzyme reaction process. After 30 minutes, an appropriate amount of stop solution and detection solution were added, and the mixture was incubated for 1 hour. Then, the enzyme activity at specific compound concentrations was measured at wavelengths of 665 nm and 620 nm on Envision 2104 Multilabel Microcell Detector of PerkinElmer Company, and the inhibitory activity of the compound at different concentrations on enzyme activity was calculated, then the result was fitted to calculate the IC50 value. The c-Met kinase used in this embodiment was purchased from Carna Biosciences, the test kit HTRF KinEASE-TK was purchased from Cisbio Bioassays Company, and ATP was purchased from Sigma Aldrich Company.

[1] = test system: human gastric cancer cells SNU-5 with high expression of c-Met; assay: c-Met cell proliferation inhibition test (CCK-8, 72 hours); type: cell-based; details: SNU-5 cells
Method: The inhibitory activity of the test compound on proliferation of human gastric cancer cells SNU-5 with high expression of c-Met was determined through the following in vitro cell assay, and the activity can be expressed by IC50 value. Specific experimental method can refer to Neru Munshi, Sebastien Jeay, Youzhi Li, et al., ARQ 197, a Novel and Selective Inhibitor of the Human c-Met Receptor Tyrosine Kinase with Antitumor Activity. Mol Cancer Ther 2010; 9:1544-1553, the content of which is incorporated herein by reference in its entirety. The general method is as follows: first, human tumor cells SNU-5 (purchased from the Institute of Biochemistry and Cell Biology) with high expression of c-Met was selected and inoculated on a 96-well culture plate at a suitable cell concentration (e.g., 5000 cells/ml culture medium), then they were diluted with IMDM culture medium containing 2% FBS to form a series of test compound solutions at gradient concentrations (generally 6 to 7 concentrations) and continuously incubated for 72 hours. After 72 hours, the activity of the test compound on inhibiting cell proliferation could be determined using the Cell Counting Kit-8 (CCK-8, purchased from DojinDo) method. The IC50 value can be calculated from the inhibitory values on cell proliferation of the test compound at a series of different concentrations.

Chain of c-Met kinase (P08581 25-1390): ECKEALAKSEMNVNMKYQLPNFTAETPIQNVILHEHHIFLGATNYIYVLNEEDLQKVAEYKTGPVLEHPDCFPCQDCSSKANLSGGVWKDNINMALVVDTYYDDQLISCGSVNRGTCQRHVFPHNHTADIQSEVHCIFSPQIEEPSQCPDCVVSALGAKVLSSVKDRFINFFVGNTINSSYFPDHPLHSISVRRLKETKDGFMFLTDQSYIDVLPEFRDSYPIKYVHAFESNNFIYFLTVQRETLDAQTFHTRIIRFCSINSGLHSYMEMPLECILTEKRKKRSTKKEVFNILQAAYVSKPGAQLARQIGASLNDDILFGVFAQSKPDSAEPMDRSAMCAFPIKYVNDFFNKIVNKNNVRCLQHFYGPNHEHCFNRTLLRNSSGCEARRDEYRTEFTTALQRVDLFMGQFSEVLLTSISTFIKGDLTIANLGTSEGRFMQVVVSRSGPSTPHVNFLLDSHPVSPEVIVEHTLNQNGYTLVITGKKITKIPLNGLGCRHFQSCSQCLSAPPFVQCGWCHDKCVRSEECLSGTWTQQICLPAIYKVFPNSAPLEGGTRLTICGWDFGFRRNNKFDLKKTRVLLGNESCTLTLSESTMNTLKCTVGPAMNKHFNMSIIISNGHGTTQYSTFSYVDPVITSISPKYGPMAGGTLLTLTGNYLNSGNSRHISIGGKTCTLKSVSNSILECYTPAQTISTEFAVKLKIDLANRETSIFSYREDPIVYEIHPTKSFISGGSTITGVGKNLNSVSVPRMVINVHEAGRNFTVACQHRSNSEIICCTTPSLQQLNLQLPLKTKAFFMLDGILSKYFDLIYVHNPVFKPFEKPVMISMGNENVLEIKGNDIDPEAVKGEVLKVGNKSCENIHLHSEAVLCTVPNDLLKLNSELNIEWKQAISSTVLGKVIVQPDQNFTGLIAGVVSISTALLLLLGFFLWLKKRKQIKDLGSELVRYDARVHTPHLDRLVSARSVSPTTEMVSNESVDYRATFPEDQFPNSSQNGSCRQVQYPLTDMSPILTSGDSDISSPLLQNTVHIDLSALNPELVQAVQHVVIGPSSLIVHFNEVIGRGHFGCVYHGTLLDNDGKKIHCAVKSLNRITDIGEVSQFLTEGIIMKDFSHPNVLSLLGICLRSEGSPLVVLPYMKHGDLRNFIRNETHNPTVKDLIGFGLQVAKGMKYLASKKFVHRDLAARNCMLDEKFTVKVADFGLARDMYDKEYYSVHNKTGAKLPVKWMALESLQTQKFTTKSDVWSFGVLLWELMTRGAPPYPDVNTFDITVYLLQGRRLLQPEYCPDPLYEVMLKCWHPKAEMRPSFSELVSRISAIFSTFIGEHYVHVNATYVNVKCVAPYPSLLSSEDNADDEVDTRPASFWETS

pIC50 (c-Met kinase) | pIC50 [1] | SMILES
9.00 | 8.92 | CN1C(=O)COc2c1cnc1cc(F)c(C(F)(F)c3nnc4ccc(-c5cnn(C)c5)nn34)cc21 [Embodiment 1, 9-{difluoro(6-(1-methyl-1H-pyrazol-4-yl)-[1,2,4]triazolo[4,3-b]pyridazin-3-yl)methyl}-8-fluoro-4-methyl-2H-[1,4]oxazino[3,2-c]quinolin-3(4H)-one]
8.66 | 8.55 | CN1C(=O)COc2c1cnc1cc(F)c(Sc3nnc4ccc(-c5cnn(C)c5)nn34)cc21 [Embodiment 2, 8-fluoro-4-methyl-9-{[6-(1-methyl-1H-pyrazol-4-yl)-[1,2,4]triazolo[4,3-b]pyridazin-3-yl]sulfanyl}-2H-[1,4]oxazino[3,2-c]quinolin-3 (4H)-one]
8.31 | 8.33 | Cn1cc(-c2ccc3nnc(C(F)(F)c4ccc5ncccc5c4)n3n2)cn1 [JNJ-38877605, reference compound]

Reference: US10301325B2, “Quinoline derivative, and pharmaceutical composition, preparation method and use thereof” (SHANGHAI HAIJU BIOLOGICAL TECHNOLOGY CO., LTD., priority 2015, dated 2019)
